System: P. falciparum 3D7 parasites
Assay: Metabolomic profiling of compound-treated parasites (LC/MS);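 as to Metabolite data: 3-Phosphoglycerate: Log2 fold change in abundance versus untreated parasite controls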;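 as to Metabolite data: Myo-Inositol: Log2 fold change in abundance versus untreated parasite controls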;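 as to Metabolite data: N-Carbamoyl-L-Aspartate: Log2 fold change in abundance versus untreated parasite controls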;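 as to Metabolite data: Nicotinate: Log2 fold change in abundance versus untreated parasite controls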
Type: cell-based
Parameters: Metabolite data: dTMP / Metabolite data: GMP / Metabolite data: S-Adenosyl-L-Homocysteine / Metabolite data: 1_3-Bisphosphoglyceric acid: scale not given here
How it was run: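 Magnetically purified trophozoites (1×10^8 parasites/mL) recovered 1 h in RPMI 1640, incubated a further 2.5 h, quenched in 90% methanol with labeled aspartate. Extracts analysed by reverse-phase C18 LC with negative-mode Orbitrap MS; peak areas normalized to internal standards, blank-subtracted and averaged by condition.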

C[C@H]1Cc2c([nH]c3cc(Cl)c(F)cc23)[C@@]2(N1)C(=O)Nc1ccc(Cl)cc12 [NITD609]
Metabolite data: 1_3-Bisphosphoglyceric acid: 0 | Metabolite data: 2_3-Diphosphoglyceric acid: -2.22 | Metabolite data: 3-Phosphoglycerate: 0.01 | Metabolite data: 4-Aminobutyrate: -0.54 | Metabolite data: 4-Phosphopantothenate: -0.15 | Metabolite data: 4-phosphopantetheine: 0 | Metabolite data: 5-aminopentanoic acid: 0 | Metabolite data: 5-phosphoribosyl-1-pyrophosphate: 0 | Metabolite data: 6-Phospho-D-Gluconate: -0.28 | Metabolite data: ADP-D-Glucose: 0.02 | Metabolite data: Acetyl-CoA: -0.54 | Metabolite data: Acetyllysine: -1.93 | Metabolite data: Aconitate: 0.62 | Metabolite data: CDP: -0.29 | Metabolite data: CDP-Ethanolamine: -0.28 | Metabolite data: CDP-choline: 0 | Metabolite data: CMP: 1.24 | Metabolite data: CTP: -1.27 | Metabolite data: Citrate/Isocitrate: 0.19 | Metabolite data: Cyclic-AMP: -1.16 | Metabolite data: Dihydroorotate: -2.01 | Metabolite data: FAD: -1.31 | Metabolite data: FMN: -1 | Metabolite data: Fructose-1,6-Bisphosphate: -1.13 | Metabolite data: Fumarate: -0.06 | Metabolite data: GDP: -2.58 | Metabolite data: GMP: -2.42 | Metabolite data: GTP: -1.11 | Metabolite data: Glucose-1/6-Phosphate: -0.9 | Metabolite data: Glutathione Disulfide: -0.38 | Metabolite data: Hexose: 0 | Metabolite data: Hydroxyisocaproic acid: 0 | Metabolite data: Indole: 0.17 | Metabolite data: Ketoleucine: 0 | Metabolite data: L-arginino-succinate: 0 | Metabolite data: Lactate: -1.31 | Metabolite data: Malate: -0.06 | Metabolite data: Myo-Inositol: -3.27 | Metabolite data: N-Acetyl-Glutamate: -0.27 | Metabolite data: N-Acetyl-L-Alanine: -1.42 | Metabolite data: N-Acetyl-L-Ornithine: -1.27 | Metabolite data: N-Carbamoyl-L-Aspartate: -4.57 | Metabolite data: NAD+: -0.4 | Metabolite data: NADH: 0.03 | Metabolite data: NADP+: -0.12 | Metabolite data: NADPH: 0.35 | Metabolite data: Nicotinate: 0.78 | Metabolite data: Octulose 8/1-Phosphate: -1.92 | Metabolite data: Orotate: 0.91 | Metabolite data: PD: 0 | Metabolite data: PE: 0 | Metabolite data: PEEK: 0 | Metabolite data: Phenol Red: 0 | Metabolite data: Pyroglutamic acid: -0.06 | Metabolite data: S-Adenosyl-L-Homocysteine: -1.64 | Metabolite data: S-methyl-5'-thioadenosine: -0.53 | Metabolite data: SD: 0 | Metabolite data: Sedoheptulose Bisphosphate: -1.34 | Metabolite data: UDP: -0.96 | Metabolite data: UDP-D-Glucose: -0.2 | Metabolite data: UDP-D-Glucuronate: -0.36 | Metabolite data: UDP-N-Acetyl-Glucosamine: 0.03 | Metabolite data: UMP: -0.38 | Metabolite data: UTP: -2.05 | Metabolite data: a-ketoglutarate: 0.5 | Metabolite data: acetyl-aspartate: 0 | Metabolite data: arginine: 0 | Metabolite data: asparagine: 0 | Metabolite data: aspartate: 0 | Metabolite data: biotin: 0 | Metabolite data: chlorpropamide: 0 | Metabolite data: coenzyme A: 0 | Metabolite data: dAMP: 2.56 | Metabolite data: dATP: -0.71 | Metabolite data: dCDP: 1.68 | Metabolite data: dCMP: 1.5 | Metabolite data: dCTP: 0.45 | Metabolite data: dGDP/ADP: 0 | Metabolite data: dGMP/AMP: -1.14 | Metabolite data: dGTP/ATP: 0 | Metabolite data: dTDP: 2.45 | Metabolite data: dTMP: 3.96 | Metabolite data: dTTP: 1.4 | Metabolite data: folate: 0 | Metabolite data: glucono-lactone: 0 | Metabolite data: glutamate: 0 | Metabolite data: glutamine: 0 | Metabolite data: glutathione: 0 | Metabolite data: histidine: 0 | Metabolite data: hydroxyproline/Aminolevulinate: 0 | Metabolite data: isoleucine: 0 | Metabolite data: leucine: 0 | Metabolite data: maleic acid: 0 | Metabolite data: methionine: 0 | Metabolite data: nicotinamide mononucleotide: 0 | Metabolite data: orotidine-5'-phosphate: 0

N#Cc1cc(NC(=O)[C@H]2c3ccccc3C(=O)N(CC(F)(F)F)[C@@H]2c2cccnc2)ccc1F [SJ733]
Metabolite data: 1_3-Bisphosphoglyceric acid: 0 | Metabolite data: 2_3-Diphosphoglyceric acid: -1.405 | Metabolite data: 3-Phosphoglycerate: 0.1564 | Metabolite data: 4-Aminobutyrate: -0.6232 | Metabolite data: 4-Phosphopantothenate: -0.06384 | Metabolite data: 4-phosphopantetheine: 0 | Metabolite data: 5-aminopentanoic acid: 0 | Metabolite data: 5-phosphoribosyl-1-pyrophosphate: 0 | Metabolite data: 6-Phospho-D-Gluconate: -0.1307 | Metabolite data: ADP-D-Glucose: 0.2839 | Metabolite data: Acetyl-CoA: -0.6106 | Metabolite data: Acetyllysine: -2.328 | Metabolite data: Aconitate: 1.12 | Metabolite data: CDP: 0.04523 | Metabolite data: CDP-Ethanolamine: -0.09201 | Metabolite data: CDP-choline: 0 | Metabolite data: CMP: 1.401 | Metabolite data: CTP: -0.9536 | Metabolite data: Citrate/Isocitrate: 0.1284 | Metabolite data: Cyclic-AMP: -1.252 | Metabolite data: Dihydroorotate: -2.603 | Metabolite data: FAD: -1.458 | Metabolite data: FMN: -1.104 | Metabolite data: Fructose-1,6-Bisphosphate: -0.7765 | Metabolite data: Fumarate: 0.221 | Metabolite data: GDP: -2.218 | Metabolite data: GMP: -2.3136 | Metabolite data: GTP: -1.102 | Metabolite data: Glucose-1/6-Phosphate: -0.8546 | Metabolite data: Glutathione Disulfide: -0.003594 | Metabolite data: Hexose: 0 | Metabolite data: Hydroxyisocaproic acid: 0 | Metabolite data: Indole: 0.01538 | Metabolite data: Ketoleucine: 0 | Metabolite data: L-arginino-succinate: 0 | Metabolite data: Lactate: -1.557 | Metabolite data: Malate: 0.2276 | Metabolite data: Myo-Inositol: -4.078 | Metabolite data: N-Acetyl-Glutamate: -0.1913 | Metabolite data: N-Acetyl-L-Alanine: -1.649 | Metabolite data: N-Acetyl-L-Ornithine: -1.387 | Metabolite data: N-Carbamoyl-L-Aspartate: -4.081 | Metabolite data: NAD+: -0.3968 | Metabolite data: NADH: 0.5171 | Metabolite data: NADP+: -0.1788 | Metabolite data: NADPH: 3.012 | Metabolite data: Nicotinate: 0.6001 | Metabolite data: Octulose 8/1-Phosphate: -0.3837 | Metabolite data: Orotate: 0.7127 | Metabolite data: PD: -1.25 | Metabolite data: PE: -3.092 | Metabolite data: PEEK: -1.29 | Metabolite data: Phenol Red: 0 | Metabolite data: Pyroglutamic acid: -0.07146 | Metabolite data: S-Adenosyl-L-Homocysteine: -0.5514 | Metabolite data: S-methyl-5'-thioadenosine: -0.2796 | Metabolite data: SD: -3.659 | Metabolite data: Sedoheptulose Bisphosphate: -0.9288 | Metabolite data: UDP: -0.7526 | Metabolite data: UDP-D-Glucose: -0.1564 | Metabolite data: UDP-D-Glucuronate: -0.198 | Metabolite data: UDP-N-Acetyl-Glucosamine: 0.08301 | Metabolite data: UMP: -0.4316 | Metabolite data: UTP: -1.732 | Metabolite data: a-ketoglutarate: 0.4286 | Metabolite data: acetyl-aspartate: 0 | Metabolite data: arginine: 0 | Metabolite data: asparagine: 0 | Metabolite data: aspartate: 0 | Metabolite data: biotin: 0 | Metabolite data: chlorpropamide: 0 | Metabolite data: coenzyme A: 0 | Metabolite data: dAMP: 2.428 | Metabolite data: dATP: -0.7133 | Metabolite data: dCDP: 1.868 | Metabolite data: dCMP: 1.752 | Metabolite data: dCTP: 0.5805 | Metabolite data: dGDP/ADP: -2.35 | Metabolite data: dGMP/AMP: -1.067 | Metabolite data: dGTP/ATP: 0 | Metabolite data: dTDP: 2.593 | Metabolite data: dTMP: 4.089 | Metabolite data: dTTP: 1.546 | Metabolite data: folate: 0 | Metabolite data: glucono-lactone: 0 | Metabolite data: glutamate: 0 | Metabolite data: glutamine: 0 | Metabolite data: glutathione: 0 | Metabolite data: histidine: 0 | Metabolite data: hydroxyproline/Aminolevulinate: 0 | Metabolite data: isoleucine: 0 | Metabolite data: leucine: 0 | Metabolite data: maleic acid: 0 | Metabolite data: methionine: 0 | Metabolite data: nicotinamide mononucleotide: 0 | Metabolite data: orotidine-5'-phosphate: 0

Reference: article PMC8878317, “Chemogenomics identifies acetyl-coenzyme A synthetase as a target for malaria treatment and prevention” (Cell Chemical Biology, 2022)
